One experiment addresses mTor kinase (Homo sapiens (Human), UniProt P42345). As to the kind of experiment: mTor assay (33P-ATP filter-binding kinase assay). Format: biochemical. Conditions: 2 hours at room temperature.
For a further experiment, the target named is PI3Kα (Homo sapiens (Human), UniProt P42336). Nature of the experiment: Inhibition of PI3Kα (ADP-Glo kinase activity assay, ATP to ADP conversion). Format: biochemical. Conditions: 25 μM PIP2:PS, 60 μM ATP, 30 min reaction, luminescence. Summed up: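 Recombinant active PI3Kα (1.1 nM) in HEPES pH 7.5 buffer with 6 mM MgCl2 and 8 mM DTT was preincubated with compound for 0 or 3 h. The reaction ran for 30 min with 25 µM PIP2:PS and 60 µM ATP, and ADP formation was read by ADP-Glo luminescence. IC50 came from a 12-point, 1:3 series fitted with a 4-parameter model, bottom fixed to reference inhibitor controls and top floating.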
Background: In ADP-Glo the light output rises with the ADP produced.

In experiment [1] the test system is (Ser-473) pAKT in B103 (Rat Neuroblastoma) cells. Nature of the experiment: pAKT protocol: loss of (Ser-473) pAKT by AlphaScreen in insulin-stimulated B103 cells. Format: cell-based. The note with it: (Ser-473) pAKT/total AKT IC50, 2-hour pretreatment, 2.5 μg/mL insulin 20 minutes. In short, it runs like this: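 Rat neuroblastoma B103 cells, serum-starved 6 h, were pretreated 2 h with inhibitors (6-point 1:3 series, 0.5% DMSO) before insulin stimulation. Lysate Ser-473 pAKT and total AKT measured by AlphaScreen; pAKT/total AKT ratio fitted to 4-parameter curve, bottom constrained to reference control, top anchored to DMSO.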
In general terms: Alpha assays give light when donor and acceptor beads are brought close together.

SMILES strings stand for the structures.

Chain of PI3Kα (P42336 whole entry): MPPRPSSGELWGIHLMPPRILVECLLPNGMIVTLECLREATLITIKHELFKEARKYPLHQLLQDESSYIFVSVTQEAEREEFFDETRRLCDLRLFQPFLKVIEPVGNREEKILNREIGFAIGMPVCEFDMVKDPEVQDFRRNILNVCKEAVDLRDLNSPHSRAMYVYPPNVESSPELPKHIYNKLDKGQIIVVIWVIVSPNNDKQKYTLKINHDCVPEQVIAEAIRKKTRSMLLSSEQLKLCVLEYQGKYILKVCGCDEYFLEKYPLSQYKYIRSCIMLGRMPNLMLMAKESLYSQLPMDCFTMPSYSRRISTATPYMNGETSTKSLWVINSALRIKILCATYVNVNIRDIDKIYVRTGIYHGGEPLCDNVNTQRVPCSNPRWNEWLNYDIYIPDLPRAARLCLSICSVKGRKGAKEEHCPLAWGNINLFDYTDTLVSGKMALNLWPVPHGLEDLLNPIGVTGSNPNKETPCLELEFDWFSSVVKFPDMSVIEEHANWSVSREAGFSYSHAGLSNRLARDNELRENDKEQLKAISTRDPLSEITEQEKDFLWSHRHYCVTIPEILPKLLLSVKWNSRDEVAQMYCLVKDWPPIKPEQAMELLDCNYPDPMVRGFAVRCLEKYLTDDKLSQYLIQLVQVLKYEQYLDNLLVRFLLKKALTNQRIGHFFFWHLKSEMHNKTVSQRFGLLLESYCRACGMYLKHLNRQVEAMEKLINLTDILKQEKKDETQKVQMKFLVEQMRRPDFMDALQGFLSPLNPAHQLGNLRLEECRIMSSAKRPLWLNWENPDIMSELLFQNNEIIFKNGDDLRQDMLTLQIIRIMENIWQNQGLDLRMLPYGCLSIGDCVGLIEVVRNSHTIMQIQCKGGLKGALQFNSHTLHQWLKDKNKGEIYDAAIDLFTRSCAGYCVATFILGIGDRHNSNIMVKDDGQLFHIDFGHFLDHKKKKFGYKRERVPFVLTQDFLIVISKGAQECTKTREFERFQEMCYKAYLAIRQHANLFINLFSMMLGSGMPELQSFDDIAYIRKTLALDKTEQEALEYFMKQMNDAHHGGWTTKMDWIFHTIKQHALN
Chain of PI3Kα (P27986 whole entry partner): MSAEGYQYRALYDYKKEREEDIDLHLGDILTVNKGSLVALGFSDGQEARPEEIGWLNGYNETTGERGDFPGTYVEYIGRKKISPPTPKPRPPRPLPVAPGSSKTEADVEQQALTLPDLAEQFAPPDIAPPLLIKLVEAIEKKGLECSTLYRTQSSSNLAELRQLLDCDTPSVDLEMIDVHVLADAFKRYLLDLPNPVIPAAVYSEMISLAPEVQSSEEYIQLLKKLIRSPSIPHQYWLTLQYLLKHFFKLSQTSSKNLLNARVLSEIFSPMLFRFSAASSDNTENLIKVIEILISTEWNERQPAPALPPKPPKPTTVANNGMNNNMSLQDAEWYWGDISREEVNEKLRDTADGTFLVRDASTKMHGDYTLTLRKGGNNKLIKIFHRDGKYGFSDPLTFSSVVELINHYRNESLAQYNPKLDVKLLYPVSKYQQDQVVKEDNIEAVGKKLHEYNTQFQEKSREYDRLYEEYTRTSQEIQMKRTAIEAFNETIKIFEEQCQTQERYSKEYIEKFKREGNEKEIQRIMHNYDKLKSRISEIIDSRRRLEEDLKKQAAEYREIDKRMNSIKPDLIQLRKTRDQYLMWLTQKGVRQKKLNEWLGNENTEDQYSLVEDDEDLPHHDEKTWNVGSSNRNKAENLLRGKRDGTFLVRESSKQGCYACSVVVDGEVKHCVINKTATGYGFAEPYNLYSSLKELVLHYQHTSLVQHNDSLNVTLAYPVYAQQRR

`CC(=O)N1CCC(S(=O)(=O)c2cc(-c3cnc(N)nc3)cc(N3CCOCC3)c2)C1` (stereo not drawn) [Compound 91, 1-(3-((3-(2-aminopyrimidin-5-yl)-5-morpholinophenyl)sulfonyl)pyrrolidin-1-yl)ethan-1-one]: the half-maximal inhibitory concentration (IC50) was 2580 nM on mTor kinase and 7330 nM in experiment [1]. In addition, at PI3Kα, the “PI3Ka IC50” value worked out at 180 nM.
For the molecule `COc1ccccc1Oc1cc(-c2cnc(N)nc2)nc(N2CCOCC2)c1` [Compound 135, 5-(4-(2-methoxyphenoxy)-6-morpholinopyridin-2-yl)pyrimidin-2-amine], the IC50 at mTor kinase came out at 700 nM; in experiment [1], 1620 nM. Besides, the “PI3Ka IC50” value on PI3Kα was 79 nM.
With `Nc1ncc(-c2cc(C(=O)C3CCOCC3)cc(N3CCOCC3)n2)cn1` [Compound 131, (2-(2-aminopyrimidin-5-yl)-6-morpholinopyridin-4-yl)(tetrahydro-2H-pyran-4-yl)methanone], the half-maximal inhibitory concentration (IC50) at mTor kinase stood at 590 nM; in experiment [1] it was 560 nM. Also, the “PI3Ka IC50” value on PI3Kα came out at 23 nM.
As to `Nc1ncc(-c2cc(N3CCOCC3)cc(S(=O)(=O)C3CCOCC3)c2)cn1` [Compound 62, 5-(3-morpholino-5-((tetrahydro-2H-pyran-4-yl)sulfonyl)phenyl)pyrimidin-2-amine], the half-maximal inhibitory concentration (IC50) at mTor kinase is 1870 nM; in experiment [1], 6470 nM. On PI3Kα, the “PI3Ka IC50” value was determined as 330 nM.
Turning to `Nc1ncc(-c2cc(C3(c4ccccc4)CC3)cc(N3CCOCC3)n2)cn1` [Compound 127, 5-(6-morpholino-4-(1-phenylcyclopropyl)pyridin-2-yl)pyrimidin-2-amine], the IC50 was 130 nM on mTor kinase and 380 nM in experiment [1]. For the same molecule, on PI3Kα, the “PI3Ka IC50” value was 56 nM.

By IC50 is commonly meant the concentration that inhibits the measured activity by half.

For the origin of these results see US11492348B2, “Tri-substituted aryl and heteroaryl derivatives as modulators of PI3-kinase and autophagy pathways” (Neuropore Therapies, Inc., priority 2018, dated 2022).
